According to ChEMBL document CHEMBL3885881, “DrugMatrix”:

Organism: Rattus norvegicus
Assay: DrugMatrix - Regimen: Daily Repeat
Type: toxicity, organism-based, Sprague-Dawley
Design: regimen Daily Repeat, gender Male, age 6-8 weeks
Details: in vivo, po, route oral GAVAGE, […]; for HEMOGLOBIN / LYMPHOCYTE / MEAN CORPUSCULAR HEMOGLOBIN CONCENTRATION / MEAN CORPUSCULAR VOLUME / NUCLEATED RED BLOOD CELLS / PLATELET COUNT / ABSOLUTE BASOPHIL / ABSOLUTE EOSINOPHIL / ABSOLUTE LYMPHOCYTE / ABSOLUTE MONOCYTE / ABSOLUTE SEGMENTED NEUTROPHIL / BASOPHIL / EOSINOPHIL / ERYTHROCYTE COUNT / HEMATOCRIT: tissue Blood; for ALANINE AMINOTRANSFERASE / ALBUMIN / ALKALINE PHOSPHATASE / ASPARTATE AMINOTRANSFERASE / BLOOD UREA NITROGEN / CARBON DIOXIDE / CREATINE PHOSPHOKINASE / CREATININE / LACTATE DEHYDROGENASE / TOTAL BILIRUBIN / TOTAL PROTEIN / URIC ACID: tissue Plasma
[1] = 215 mg/kg, 72 h, dose level M2, time 3 day
[2] = 215 mg/kg, 120 h, dose level M2, time 5 day
[3] = 430 mg/kg, 72 h, dose level M3, time 3 day
[4] = 430 mg/kg, 120 h, dose level M3, time 5 day
[5] = 860 mg/kg, 72 h, dose level High, time 3 day
[6] = 860 mg/kg, dose level High, time 7 day

CC(C)OC(=O)C(C)(C)Oc1ccc(C(=O)c2ccc(Cl)cc2)cc1 [FENOFIBRATE]
HEMOGLOBIN [1]: 13.3 G/DL | LYMPHOCYTE [1]: 89.67% | MEAN CORPUSCULAR HEMOGLOBIN CONCENTRATION [1]: 39.2 G/DL | MEAN CORPUSCULAR VOLUME [1]: 61.5 fL | NUCLEATED RED BLOOD CELLS [1]: 0 /100WBC | PLATELET COUNT [1]: 1279.67 x10E3/uL | ALANINE AMINOTRANSFERASE [1]: 84.33 u/L | ALBUMIN [1]: 4.4 G/DL | ALKALINE PHOSPHATASE [1]: 436.33 u/L | ASPARTATE AMINOTRANSFERASE [1]: 108 u/L | BLOOD UREA NITROGEN [1]: 11.33 mg/dL | CARBON DIOXIDE [1]: 28.33 mmol/L | CREATINE PHOSPHOKINASE [1]: 307 u/L | CREATININE [1]: 0.23 mg/dL | LACTATE DEHYDROGENASE [1]: 227 u/L | TOTAL BILIRUBIN [1]: 0.1 mg/dL | TOTAL PROTEIN [1]: 5.3 G/DL | URIC ACID [1]: 1.47 mg/dL | ABSOLUTE BASOPHIL [2]: 0 CELLS/uL | ABSOLUTE EOSINOPHIL [2]: 0 CELLS/uL | ABSOLUTE LYMPHOCYTE [2]: 6815.67 CELLS/uL | ABSOLUTE MONOCYTE [2]: 96.33 CELLS/uL | ABSOLUTE SEGMENTED NEUTROPHIL [2]: 721.33 CELLS/uL | BASOPHIL [2]: 0% | EOSINOPHIL [2]: 0% | ERYTHROCYTE COUNT [2]: 5.68 x10E6/uL | HEMATOCRIT [2]: 34.5% | HEMOGLOBIN [2]: 13.47 G/DL | LYMPHOCYTE [2]: 90% | MEAN CORPUSCULAR HEMOGLOBIN CONCENTRATION [2]: 39.07 G/DL | MEAN CORPUSCULAR VOLUME [2]: 60.77 fL | NUCLEATED RED BLOOD CELLS [2]: 0 /100WBC | PLATELET COUNT [2]: 1144.67 x10E3/uL | ALANINE AMINOTRANSFERASE [2]: 92.67 u/L | ALBUMIN [2]: 4.8 G/DL | ALKALINE PHOSPHATASE [2]: 542 u/L | ASPARTATE AMINOTRANSFERASE [2]: 108.67 u/L | BLOOD UREA NITROGEN [2]: 9 mg/dL | CARBON DIOXIDE [2]: 35.67 mmol/L | CREATINE PHOSPHOKINASE [2]: 436 u/L | CREATININE [2]: 0.23 mg/dL | LACTATE DEHYDROGENASE [2]: 185.67 u/L | TOTAL BILIRUBIN [2]: 0.1 mg/dL | TOTAL PROTEIN [2]: 5.87 G/DL | URIC ACID [2]: 0.93 mg/dL | ABSOLUTE BASOPHIL [3]: 0 CELLS/uL | ABSOLUTE EOSINOPHIL [3]: 35 CELLS/uL | ABSOLUTE LYMPHOCYTE [3]: 8585.33 CELLS/uL | ABSOLUTE MONOCYTE [3]: 165.67 CELLS/uL | ABSOLUTE SEGMENTED NEUTROPHIL [3]: 847.33 CELLS/uL | BASOPHIL [3]: 0% | EOSINOPHIL [3]: 0.33% | ERYTHROCYTE COUNT [3]: 5.9 x10E6/uL | HEMATOCRIT [3]: 37.27% | LYMPHOCYTE [3]: 89.33% | MEAN CORPUSCULAR HEMOGLOBIN CONCENTRATION [3]: 38.8 G/DL | MEAN CORPUSCULAR VOLUME [3]: 63.17 fL | NUCLEATED RED BLOOD CELLS [3]: 0 /100WBC | PLATELET COUNT [3]: 1091.33 x10E3/uL | ALANINE AMINOTRANSFERASE [3]: 125.33 u/L | ALBUMIN [3]: 3.57 G/DL | ALKALINE PHOSPHATASE [3]: 509.67 u/L | ASPARTATE AMINOTRANSFERASE [3]: 123.67 u/L | BLOOD UREA NITROGEN [3]: 12 mg/dL | CARBON DIOXIDE [3]: 25.67 mmol/L | CREATINE PHOSPHOKINASE [3]: 211 u/L | CREATININE [3]: 0.21 mg/dL | LACTATE DEHYDROGENASE [3]: 138.33 u/L | TOTAL BILIRUBIN [3]: 0.23 mg/dL | TOTAL PROTEIN [3]: 4.8 G/DL | URIC ACID [3]: 0.57 mg/dL | ABSOLUTE BASOPHIL [4]: 0 CELLS/uL | ABSOLUTE EOSINOPHIL [4]: 84 CELLS/uL | ABSOLUTE LYMPHOCYTE [4]: 7042 CELLS/uL | ABSOLUTE MONOCYTE [4]: 80.5 CELLS/uL | ABSOLUTE SEGMENTED NEUTROPHIL [4]: 843.5 CELLS/uL | BASOPHIL [4]: 0% | EOSINOPHIL [4]: 1% | ERYTHROCYTE COUNT [4]: 5.34 x10E6/uL | HEMATOCRIT [4]: 33.8% | HEMOGLOBIN [4]: 13.3 G/DL | LYMPHOCYTE [4]: 87.5% | MEAN CORPUSCULAR HEMOGLOBIN CONCENTRATION [4]: 39.35 G/DL | MEAN CORPUSCULAR VOLUME [4]: 63.4 fL | NUCLEATED RED BLOOD CELLS [4]: 0 /100WBC | PLATELET COUNT [4]: 1064.5 x10E3/uL | ALANINE AMINOTRANSFERASE [4]: 87.5 u/L | ALBUMIN [4]: 4.65 G/DL | ALKALINE PHOSPHATASE [4]: 418.5 u/L | ASPARTATE AMINOTRANSFERASE [4]: 104.5 u/L | BLOOD UREA NITROGEN [4]: 13 mg/dL | CARBON DIOXIDE [4]: 27 mmol/L | CREATINE PHOSPHOKINASE [4]: 307 u/L | CREATININE [4]: 0.31 mg/dL | LACTATE DEHYDROGENASE [4]: 104 u/L | TOTAL BILIRUBIN [4]: 0.15 mg/dL | TOTAL PROTEIN [4]: 5.5 G/DL | URIC ACID [4]: 0.6 mg/dL | ABSOLUTE BASOPHIL [5]: 0 CELLS/uL | ABSOLUTE EOSINOPHIL [5]: 44 CELLS/uL | ABSOLUTE LYMPHOCYTE [5]: 10937 CELLS/uL | ABSOLUTE MONOCYTE [5]: 410.5 CELLS/uL | ABSOLUTE SEGMENTED NEUTROPHIL [5]: 2833.5 CELLS/uL | BASOPHIL [5]: 0% | EOSINOPHIL [5]: 0.25% | ERYTHROCYTE COUNT [5]: 6.03 x10E6/uL | HEMATOCRIT [5]: 37.23% | HEMOGLOBIN [5]: 15.3 G/DL | LYMPHOCYTE [5]: 75.75% | MEAN CORPUSCULAR HEMOGLOBIN CONCENTRATION [5]: 41.35 G/DL | MEAN CORPUSCULAR VOLUME [5]: 61.7 fL | NUCLEATED RED BLOOD CELLS [5]: 0 /100WBC | PLATELET COUNT [5]: 961.5 x10E3/uL | ALANINE AMINOTRANSFERASE [5]: 233.5 u/L | ALBUMIN [5]: 4.15 G/DL | ALKALINE PHOSPHATASE [5]: 474.75 u/L | ASPARTATE AMINOTRANSFERASE [5]: 132.75 u/L | BLOOD UREA NITROGEN [5]: 13 mg/dL | CARBON DIOXIDE [5]: 29 mmol/L | CREATINE PHOSPHOKINASE [5]: 233.75 u/L | CREATININE [5]: 0.14 mg/dL | LACTATE DEHYDROGENASE [5]: 160.5 u/L | TOTAL BILIRUBIN [5]: 0.28 mg/dL | TOTAL PROTEIN [5]: 5.55 G/DL | ABSOLUTE BASOPHIL [6]: 0 CELLS/uL | ABSOLUTE EOSINOPHIL [6]: 0 CELLS/uL | ABSOLUTE LYMPHOCYTE [6]: 6863 CELLS/uL | ABSOLUTE MONOCYTE [6]: 370.5 CELLS/uL | ABSOLUTE SEGMENTED NEUTROPHIL [6]: 5116.5 CELLS/uL | BASOPHIL [6]: 0% | EOSINOPHIL [6]: 0% | ERYTHROCYTE COUNT [6]: 6.05 x10E6/uL | HEMATOCRIT [6]: 35.15% | HEMOGLOBIN [6]: 13.8 G/DL | LYMPHOCYTE [6]: 55.5% | MEAN CORPUSCULAR HEMOGLOBIN CONCENTRATION [6]: 39.4 G/DL | MEAN CORPUSCULAR VOLUME [6]: 57.6 fL | NUCLEATED RED BLOOD CELLS [6]: 2 /100WBC | PLATELET COUNT [6]: 1590.5 x10E3/uL | ALANINE AMINOTRANSFERASE [6]: 283.5 u/L | ALBUMIN [6]: 3 G/DL | ALKALINE PHOSPHATASE [6]: 812 u/L | ASPARTATE AMINOTRANSFERASE [6]: 328 u/L | BLOOD UREA NITROGEN [6]: 63 mg/dL | CARBON DIOXIDE [6]: 25 mmol/L | CREATINE PHOSPHOKINASE [6]: 1456.5 u/L | CREATININE [6]: 0.58 mg/dL | LACTATE DEHYDROGENASE [6]: 638 u/L | TOTAL BILIRUBIN [6]: 2.9 mg/dL | TOTAL PROTEIN [6]: 5.7 G/DL
